Reference: article PMC8840742 (Molecules, 2022)

Key:
[1] = tested on: SARS-CoV-2 B.1.1.7 (UK or Alpha variant); assay: microbe, parasite or virus in culture; type: cell-based; conditions: Severe acute respiratory syndrome coronavirus 2, Vero C1008; VeroE6 cells in presence of P-gp inhibitor
[2] = tested on: SARS-CoV-2 B.1.617.2 (Indian or Delta variant); assay: microbe, parasite or virus in culture; type: cell-based; conditions: Severe acute respiratory syndrome coronavirus 2, Vero C1008; VeroE6 cells in presence of P-gp inhibitor

c1ccc(CCN2CCC(Oc3ccccc3-c3nc(-c4ccncc4)no3)C2)cc1 (centres unmarked) [Compound 1, 5-(2-((1-Phenethylpyrrolidin-3-yl)oxy)phenyl)-3-(pyridin-4-yl)-1,2,4-oxadiazole]
EC50 [1]: 3 ± 1 µM | EC50 [2]: 4 ± 2 µM
